Results published in US20240246970A1, “SUBSTITUTED HETERO-BICYCLOCOMPOUNDS AS SUBTYPE SELECTIVE NICOTINIC ACETYLCHOLINE RECEPTOR INHIBITORS” (THE BOARD OF TRUSTEES OF THE UNIVERSITY OF ILLINOIS, priority 2021, published 2024).
pIC50: −log10 of the molar value. Read-outs that look alike come from different tables or passages of the source.

Biological target: T1, rat α3β4 nAChR (Rattus norvegicus, UniProt P04757+P12392)
T1 construct: expressed in transfected cells; host or cells: HEK293 (rα3β4-HEK293, kept under G-416 selection)
T1 sequence (P04757 26-499): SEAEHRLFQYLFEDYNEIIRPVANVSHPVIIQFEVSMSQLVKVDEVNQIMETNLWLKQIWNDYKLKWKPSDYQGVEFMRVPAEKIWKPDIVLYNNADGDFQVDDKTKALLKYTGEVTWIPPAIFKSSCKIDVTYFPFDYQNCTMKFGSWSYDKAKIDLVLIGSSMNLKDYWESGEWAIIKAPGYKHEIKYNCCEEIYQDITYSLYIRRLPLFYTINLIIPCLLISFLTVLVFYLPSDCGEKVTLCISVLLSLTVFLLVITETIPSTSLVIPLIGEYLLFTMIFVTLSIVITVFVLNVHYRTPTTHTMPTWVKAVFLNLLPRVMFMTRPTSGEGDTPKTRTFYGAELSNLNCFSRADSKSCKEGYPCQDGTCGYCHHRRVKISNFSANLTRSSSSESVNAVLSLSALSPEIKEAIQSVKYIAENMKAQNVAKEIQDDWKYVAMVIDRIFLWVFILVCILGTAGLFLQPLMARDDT
T1 sequence (P12392 21-495): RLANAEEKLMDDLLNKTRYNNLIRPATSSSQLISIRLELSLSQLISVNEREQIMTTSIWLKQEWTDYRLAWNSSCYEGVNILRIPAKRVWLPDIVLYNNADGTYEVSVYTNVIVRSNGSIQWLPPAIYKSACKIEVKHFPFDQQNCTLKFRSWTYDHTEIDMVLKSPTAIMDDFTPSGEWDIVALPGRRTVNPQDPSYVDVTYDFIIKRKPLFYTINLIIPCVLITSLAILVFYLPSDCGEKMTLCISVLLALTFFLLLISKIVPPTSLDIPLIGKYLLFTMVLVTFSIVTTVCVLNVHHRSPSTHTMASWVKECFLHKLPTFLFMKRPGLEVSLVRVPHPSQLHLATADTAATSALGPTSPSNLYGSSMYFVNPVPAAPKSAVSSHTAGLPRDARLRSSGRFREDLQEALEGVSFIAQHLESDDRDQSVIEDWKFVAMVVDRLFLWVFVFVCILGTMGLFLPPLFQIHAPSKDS
Assay: Calcium influx assay (dual agonist/antagonist, FLIPR calcium 6) in HEK293 cells expressing rat α3β4 nAChR
Format: cell-based
Procedure: FIGS. 2A-2B show dual agonist/antagonist fluorescence assays. […] For agonist assays, 12 concentrations of test compounds were added to the cells ([…], final concentrations).
FIGS. 3A-3B show concentration response curves. […] Each concentration-response point represents a minimum of two technical replicates and three biological replicates. EC50, Emax, and IC50 values were calculated from corresponding concentration-response curves fitted using the logistical curve in OriginPro.
Assay Description. HEK293 cells expressing the rat α3β4 nAChR were loaded with an intracellular, calcium-sensitive dye. Activation of the receptor results in an increase in the intracellular calcium concentration and a corresponding increase in fluorescent signal. Multiple concentrations of test compounds were first applied to the rα3β4-HEK293 cells and monitored for their ability to activate α3β4 nAChRs.
Cell culture. […] For fluorescence assays, the cells were seeded into 96-well flat bottom, black wall plates, at a density of approximately 50,000 cells per well in 75 μL of media.
Cells seeded at this density grew into a confluent monolayer in 24 h. Ca^2+ fluorescence assays. Ca^2+ uptake was determined using a FLIPR calcium 6 assay.
For dye loading, the fluorescent dye was reconstituted in 10 mL assay buffer according to the manufacturer's protocol. 75 μL of the dye solution was added to each well and the plate was incubated at 37° C. for 1 h. Plates were then transferred to a FlexStation 3 maintained at 37° C.
Dual Agonist/AntagonistAssay. […] For agonist assays, 12 concentrations of test compounds were added to the cells ([…], final concentrations).
Once again, the fluorescence measured for 28 seconds prior to addition and 90 seconds afterwards.
Data reduction. […] Each concentration-response point represents a minimum of two technical replicates and three biological replicates. EC50, Emax, and IC50 values were calculated from corresponding concentration-response curves (see FIGS. 3A-3B) fitted using the logistical curve in OriginPro.

[1] = Example 5, α3β4 nAChR, read-out: IC50

SMILES | pIC50 [1] | other results
CC1=CCC2CC1C(c1ccnc3ccccc13)N(C)C2(C)C (stereo not shown) | 5.85 | –
CCN1C(c2ccc(F)c(C(F)(F)F)c2)C2CC(CC=C2C)C1(C)C (stereo not shown) | 6.12 | –
CC1=CCC2CC1C(c1ccc(F)c(C(F)(F)F)c1)OC2(C)C (stereo not shown) [drawing 51] | – | pIC50 (IC50, Example 5 text, α3β4 nAChR): < 4.00
CC1=CCC2CC1C(c1ccc(F)c(C(F)(F)F)c1)OC2(C)C (stereo not shown) [drawing 115] | – | pIC50 (α3β4 nAChR IC50, Table 4, R1 and R2 methyl, R3 NH unless otherwise indicated): < 3.70
